Among the data in the NIST ThermoML archive (doi:10.1021/je800789b) are Normal melting temperature values, retold here.

The conditions of the data set: Crystal.

± gives the expanded uncertainty stated by the source.

With `CCCCCCCCCCCCO` [dodecan-1-ol], the Normal melting temperature was found to be 24.1 ± 0.6 °C.

As for `O=C(O)CC1CCCCC1` [cyclohexylethanoic acid], the Normal melting temperature worked out at 29.8 ± 1.2 °C.

Turning to `CCCCCCCCCCO` [decan-1-ol], the Normal melting temperature came to 6.2 ± 0.4 °C.

As to `O=C(O)C1CCCCC1` [cyclohexanecarboxylic acid], the Normal melting temperature stood at 29.8 ± 1.2 °C.
